Here are results for six compounds from the supplement of paper PMC7661543.

What all share (test): relative cell number vs DMSO control (72 h) (% of DMSO); higher = less growth inhibition (more cells)
Conditions in all cases: sgRNA knockout: sgNT

Experiment [1] concerns HCC-38. The protocol: (§1)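 QMAP-Seq: a pool of 5 breast cancer cell lines (ZR-75-1, SKBR3, HCC-38, MDA-MB-231, BT-20), each carrying 12 doxycycline-inducible Cas9 sgRNA perturbations (11 knockouts plus non-targeting sgNT), was treated with compounds for 72 h at four 10-fold doses (10 nM-10 uM or 1 nM-1 uM range). Barcodes were amplified and sequenced, and cell number was interpolated from 293T spike-in standard curves. The result is expressed as % of the median of DMSO wells. Two biological replicates.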

Experiment [2] has as its system SKBR3. The method, then:
as §1

The subject of experiment [3] is ZR-75-1. The method, then:
as §1

Experiment [4] has as its system MDA-MB-231. The method, then:
as §1

Experiment [5] concerns BT-20. The method, then:
as §1

± gives the standard deviation of the averaged measurements.

On to `CC(C)n1cnc2c(NCCc3ccc(O)cc3)nc(-c3csc4ccccc34)nc21` [StemRegenin1], for which the relative cell number in experiment [1] (10 nM) worked out at 90 ± 7.6; in experiment [1] (100 nM) it was 116 ± 2.2; in experiment [1] (1000 nM) it was 104 ± 2.8; in experiment [1] (10000 nM), 86 ± 4; in experiment [2] (10 nM), 103 ± 9; in experiment [2] (100 nM), 108 ± 14. Besides, the relative cell number in experiment [2] (1000 nM) amounted to 85.7 ± 28; in experiment [2] (10000 nM), 29.6 ± 8.4; in experiment [3] (10 nM), 65.1 ± 15; in experiment [3] (100 nM), 135 ± 5.4; in experiment [3] (1000 nM), 153 ± 85; in experiment [3] (10000 nM), 30.4 ± 12. The relative cell number in experiment [4] (10 nM) turned out to be 101 ± 24; in experiment [4] (100 nM) it was 97.5 ± 25; in experiment [4] (1000 nM), 132 ± 74; in experiment [4] (10000 nM), 75.9 ± 11; in experiment [5] (10 nM), 98.5 ± 13; in experiment [5] (100 nM) it was 115 ± 20. In addition, the relative cell number was 94.3 ± 36 in experiment [5] (1000 nM) and 55 ± 7.7 in experiment [5] (10000 nM).
`NC(=O)Nc1sc(-c2ccc(F)cc2)cc1C(N)=O` [TPCA1]: the relative cell number is 90.2 ± 2.3 in experiment [1] (10 nM); 94.5 ± 5.5 in experiment [1] (100 nM); 100 ± 6.1 in experiment [1] (1000 nM); 74.1 ± 4.5 in experiment [1] (10000 nM); 92.2 ± 32 in experiment [2] (10 nM); 93.1 ± 17 in experiment [2] (100 nM). Further, the relative cell number in experiment [2] (1000 nM) is 102 ± 8.7; in experiment [2] (10000 nM) it was 54.5 ± 1.1; in experiment [3] (10 nM), 104 ± 42; in experiment [3] (100 nM) it was 94.7 ± 6; in experiment [3] (1000 nM) it was 99.5 ± 6.5; in experiment [3] (10000 nM), 43.1 ± 5.7. Further, the relative cell number in experiment [4] (10 nM) was found to be 111 ± 21; in experiment [4] (100 nM) it was 127 ± 23; in experiment [4] (1000 nM) it was 130 ± 4.7; in experiment [4] (10000 nM) it was 69.6 ± 7.9; in experiment [5] (10 nM), 119 ± 19; in experiment [5] (100 nM) it was 101 ± 34. For the same compound, the relative cell number in experiment [5] (1000 nM) was 102.8 ± 0.57; in experiment [5] (10000 nM), 69.2 ± 3.1.
For the compound `C=CC[C@@H]1/C=C(\C)C[C@H](C)C[C@H](OC)[C@H]2O[C@@](O)(C(=O)C(=O)N3CCCC[C@H]3C(=O)O[C@H](/C(C)=C/[C@@H]3CC[C@@H](O)[C@H](OC)C3)[C@H](C)[C@@H](O)CC1=O)[C@H](C)C[C@@H]2OC` [Tacrolimus], the relative cell number was found to be 117 ± 8.4 in experiment [1] (10 nM); 99.57 ± 0.7 in experiment [1] (100 nM); 115 ± 14 in experiment [1] (1000 nM); 114 ± 5.7 in experiment [1] (10000 nM); 108 ± 22 in experiment [2] (10 nM); 90.6 ± 11 in experiment [2] (100 nM). In addition, the relative cell number in experiment [2] (1000 nM) is 101 ± 17; in experiment [2] (10000 nM), 128.1 ± 0.39; in experiment [3] (10 nM) it was 108 ± 7.9; in experiment [3] (100 nM) it was 91.5 ± 29; in experiment [3] (1000 nM), 85.6 ± 18; in experiment [3] (10000 nM) it was 92.8 ± 28. For the same compound, the relative cell number in experiment [4] (10 nM) was determined as 133 ± 27; in experiment [4] (100 nM), 106 ± 7.6; in experiment [4] (1000 nM), 96.7 ± 7; in experiment [4] (10000 nM), 135 ± 12; in experiment [5] (10 nM) it was 110 ± 2.2; in experiment [5] (100 nM), 105 ± 4.6. Moreover, the relative cell number amounted to 101 ± 16 in experiment [5] (1000 nM) and 120 ± 26 in experiment [5] (10000 nM).
In the case of `Cn1nnc2c(C(N)=O)ncn2c1=O` [Temozolomide], the relative cell number in experiment [1] (10 nM) was found to be 115 ± 2.3; in experiment [1] (100 nM) it was 89.6 ± 1.4; in experiment [1] (1000 nM), 113 ± 6.5; in experiment [1] (10000 nM), 137 ± 26; in experiment [2] (10 nM), 111 ± 8.3; in experiment [2] (100 nM), 84.7 ± 20. Further, the relative cell number is 104 ± 27 in experiment [2] (1000 nM); 96.1 ± 40 in experiment [2] (10000 nM); 89.66 ± 0.62 in experiment [3] (10 nM); 103 ± 16 in experiment [3] (100 nM); 81.7 ± 5.9 in experiment [3] (1000 nM); 86.6 ± 3.4 in experiment [3] (10000 nM). Besides, the relative cell number in experiment [4] (10 nM) was found to be 125 ± 13; in experiment [4] (100 nM) it was 108 ± 27; in experiment [4] (1000 nM) it was 89 ± 25; in experiment [4] (10000 nM) it was 101.6 ± 0.8; in experiment [5] (10 nM) it was 106 ± 24; in experiment [5] (100 nM), 111 ± 30. For the same compound, the relative cell number in experiment [5] (1000 nM) was 111 ± 14; in experiment [5] (10000 nM), 132 ± 37.
`COc1cc([C@@H]2c3cc4c(cc3[C@@H](O[C@@H]3O[C@@H]5CO[C@@H](c6cccs6)O[C@H]5[C@H](O)[C@H]3O)[C@H]3COC(=O)[C@H]23)OCO4)cc(OC)c1O` [Teniposide]: the relative cell number came out at 87.1 ± 7.7 in experiment [1] (10 nM); 43 ± 5.7 in experiment [1] (100 nM); 25.52 ± 0.049 in experiment [1] (1000 nM); 13.4 ± 2 in experiment [1] (10000 nM); 101 ± 6.8 in experiment [2] (10 nM); 26.4 ± 3.2 in experiment [2] (100 nM). For the same compound, the relative cell number was 18.4 ± 2.3 in experiment [2] (1000 nM); 15.9 ± 0.19 in experiment [2] (10000 nM); 55.8 ± 2.6 in experiment [3] (10 nM); 31.4 ± 6.7 in experiment [3] (100 nM); 29.9 ± 8.2 in experiment [3] (1000 nM); 26.1 ± 0.97 in experiment [3] (10000 nM). Besides, the relative cell number in experiment [4] (10 nM) worked out at 75.8 ± 16; in experiment [4] (100 nM) it was 25.4 ± 1.1; in experiment [4] (1000 nM) it was 11 ± 1.3; in experiment [4] (10000 nM), 11.2 ± 4.8; in experiment [5] (10 nM) it was 98.2 ± 1.9; in experiment [5] (100 nM), 67.9 ± 24. Further, the relative cell number in experiment [5] (1000 nM) was 51.2 ± 5.6; in experiment [5] (10000 nM) it was 22.6 ± 5.8.
On to `O=C1CCC(N2C(=O)c3ccccc3C2=O)C(=O)N1` (stereo not given) [Thalidomide], for which the relative cell number in experiment [1] (10 nM) was determined as 108 ± 8.4; in experiment [1] (100 nM), 95.3 ± 1.2; in experiment [1] (1000 nM) it was 117 ± 4.4; in experiment [1] (10000 nM), 115 ± 10; in experiment [2] (10 nM) it was 109 ± 39; in experiment [2] (100 nM) it was 59.4 ± 1.9. The relative cell number in experiment [2] (1000 nM) came out at 115 ± 17; in experiment [2] (10000 nM), 106 ± 2.4; in experiment [3] (10 nM), 79.7 ± 19; in experiment [3] (100 nM), 90.8 ± 6.8; in experiment [3] (1000 nM), 74.2 ± 13; in experiment [3] (10000 nM) it was 97.2 ± 55. For the same compound, the relative cell number in experiment [4] (10 nM) was 128 ± 37; in experiment [4] (100 nM), 74.8 ± 24; in experiment [4] (1000 nM), 102 ± 29; in experiment [4] (10000 nM) it was 124 ± 19; in experiment [5] (10 nM), 118 ± 11; in experiment [5] (100 nM), 91 ± 0.81. Further, the relative cell number in experiment [5] (1000 nM) amounted to 114 ± 18; in experiment [5] (10000 nM), 113 ± 9.
